Reference: patent US7199118B2, “Benzothiazine derivatives, their preparation and use” (NeuroSearch A/S, priority 2001, dated 2007)

How the values were obtained:
AMPA receptor = test: Electrophysiological whole cell patch clamp experiments: potentiation of AMPA-induced current; assay type: cell-based, mouse; settings: for effect on the current induced by application of 30 μM AMPA: cultured mouse neocortical neurons, voltage clamp -60 mV, AMPA 30 μM for 1 second every 45 seconds, test concentrations per FIGS. 2-8 (Cpd 21 15 μM; 22, 24, 25 10 μM; 23a 10-100 μM; 26 3 μM; 27a 0.1-100 μM); for concentration dependence of the potentiating effect: Compound 23a at 10, 30 and 100 μM, Compound 27a at 0.1-100 μM, 30 μM AMPA
Procedure: Electrophysiological Patch Clamp Experiments
Experiments were performed in voltage clamp using conventional whole cell patch clamp methods (see Hamill O P, Marty A, Neher E, Sakmann B & Sigworth F J: Improved patch-clamp techniques for high-resolution current recording from cells and cell-free membrane patches; Pflügers Arch. 1981 39 85–100), essentially as described Mathiesen et al. (Mathiesen C, Varming T & Jensen L H: In vivo and in vitro evaluation of AMPA receptor antagonists in rat hippocampal neurones and cultured mouse cortical neurons; Eur. J. Pharmacol. 1998 353 159–167).
The following salt solutions were used (mM): NaCl (140), KCl (4), CaCl2 (2), MgCl2 (1), Sucrose (30; Available from Fluka Chemie, Buchs, Switzerland), Tetrodotoxin (0.0003; Available from Alomone Labs, Jerusalem, Israel), Bicuculline Methiodide (0.005; Available from RBI, MA, USA) and HEPES (10, pH 7.4).
Intracellular solution (mM): CsCl (120), CsF (20), MgCl2 (2), EGTA (10), ATP (4), HEPES (10, pH=7.2).
Cell cultures: Mouse neocortical neurons were cultured essentially as described by Drejer et al. (Drejer J, Honoré T & Schousboe A: Excitatory amino acid-induced release of ^3H-GABA from cultured mouse cerebral cortex interneurons; J. Neurosci. 1987 7 2910–2916).
Briefly, the forebrains from embryonic (E17) NMRI mice were removed under sterile conditions. Pregnant (9 days) NMRI mice were obtained from Bomholtgaard Breeding and Research Center, Ry, Denmark. The tissue was chopped in 0.4 mm cubes and the triturated with trypsin (12.5 μg/ml) and DNAse (2.5 μg/ml), 15 minutes, 37° C. The cells were suspended at a concentration of 1×10^6 cells/ml in a slightly modified DMEM containing horse serum (10% (v/v)), penicillin (333 U/ml), paraaminobenzoic acid (1 μg/ml), L-glutamine (0.5 mM), insulin (0.08 U/ml) and KCl (23.8 mM). Horse serum, N2 supplement and culture media were purchased from Life Technologies (GIBCO), Roskilde, Denmark.
The cell suspension was subsequently inoculated into poly-L-lysine coated 35 mm Petri dishes (2 ml/dish). Glass coverslips (3.5 mm) were placed in the dishes before coating. After 24 hours in culture, the medium was replaced by freshly made medium containing 1% N2 supplement instead of serum.
The cells were kept in culture for 7–14 days at 37° C. (5% CO2/95% O2) before experiments were carried out.
Electronics, programs and data acquisition: The amplifier used was the EPC-9 (HEKA-electronics, Lambrect, Germany) run by a Power Macintosh G3 computer via an ITC-16 interface. Experimental conditions were set with the Pulse-software accompanying the amplifier. Data were low pass filtered and sampled directly to hard-disk at a rate of 3 times the cut-off frequency.
Pipettes and electrodes: Pipettes were pulled from borosilicate glass (Modulohm, Copenhagen, Denmark) using a horizontal electrode puller (Zeitz-Instrumente, Augsburg, Germany). The pipette resistances were 1.7–2.4 MΩ in the salt solutions used in these experiments. The pipette electrode was a chloridized silver wire, and the reference was a silverchloride pellet electrode (In Vivo Metric, Healdsburg, USA) fixed to the experimental chamber. The electrodes were zeroed with the open pipette in the bath just prior to sealing.
Experimental procedure: Coverslips were transferred to a 15 μl experimental chamber mounted on the stage of an inverted microscope (IMT-2, Olympus) supplied with Nomarski optics. The neurons were continuously superfused with extracellular saline at a rate of 2.5 ml/min. After giga-seal formation (1–5 GΩ, success-rate≈90%) the whole cell configuration was attained by suction.
The cells were held at a holding voltage of −60 mV, and at the start of each experiment the current was continuously measured for at least 30 seconds to ensure a stable leak current.
AMPA-containing solutions were delivered to the chamber through a custom-made gravity-driven flowpipe, the tip of which was placed approximately 50 μm from the cell. […]

melting point | SMILES | effect on the current induced by application of 30 μM AMPA (AMPA receptor) | concentration dependence of the potentiating effect (AMPA receptor)
 | O=S1(=O)NC(C2CCCCC2)Cc2ccc(S(=O)(=O)N3CCCCC3)cc21 (racemic) [Compound 21, (3RS)-3-Cyclohexyl-7-(piperidine-1-sulfonyl)-3,4-dihydro-2H-benzo[e][1,2]thiazine-1,1-dioxide] | potentiate the current induced by application of 30 μM AMPA | 
 | Cc1cc2c(cc1S(=O)(=O)N1CCCCC1)S(=O)(=O)NC(C1CCCC1)C2 (racemic) [Compound 25, (3RS)-3-Cyclopentyl-6-methyl-7-(piperidine-1-sulfonyl)-3,4-dihydro-2H-benzo[e][1,2]thiazine-1,1-dioxide] | potentiate the current induced by application of 30 μM AMPA | 
 | O=S1(=O)NC(C2CCCC2)Cc2ccc(S(=O)(=O)N3CCCCC3)cc21 (racemic) [Compound 22, (3RS)-3-Cyclopentyl-7-(piperidine-1-sulfonyl)-3,4-dihydro-2H-benzo[e][1,2]thiazine-1,1-dioxide] | potentiate the current induced by application of 30 μM AMPA | 
 | CN1CCN(S(=O)(=O)c2ccc3c(c2)S(=O)(=O)NC(C2CCCCC2)C3)CC1 (racemic) [Compound 24, (3RS)-3-Cyclohexyl-7-(4-methyl-piperazine-1-sulfonyl)-3,4-dihydro-2H-benzo[e][1,2]thiazine-1,1-dioxide] | potentiate the current induced by application of 30 μM AMPA | 
 | Cc1cc2c(cc1S(=O)(=O)N1CCOCC1)S(=O)(=O)NC(C1CCCC1)C2 (racemic) [Compound 26, (3RS)-3-Cyclopentyl-6-methyl-7-(morpholine-4-sulfonyl)-3,4-dihydro-2H-benzo[e][1,2]thiazine-1,1-dioxide] | potentiate the current induced by application of 30 μM AMPA | 
251 °C (dec.) | Cc1cc2c(cc1S(=O)(=O)N1CCN(C)CC1)S(=O)(=O)NC(C1CCCC1)C2.Cl (racemic) |  | 
 | Cc1cc2c(cc1S(=O)(=O)N1CCN(C)CC1)S(=O)(=O)NC(C1CCCC1)C2 (racemic) [Compound 27a, (3RS)-3-Cyclopentyl-6-methyl-7-(4-methyl-piperazine-1-sulfonyl)-3,4-dihydro-2H-benzo[e][1,2]thiazine-1,1-dioxide] | potentiate the current induced by application of 30 μM AMPA | concentration-dependent
 | CN1CCN(S(=O)(=O)c2ccc3c(c2)S(=O)(=O)NC(C2CCCC2)C3)CC1 (racemic) [Compound 23a, (3RS)-3-Cyclopentyl-7-(4-methyl-piperazine-1-sulfonyl)-3,4-dihydro-2H-benzo[e][1,2]thiazine-1,1-dioxide] | potentiate the current induced by application of 30 μM AMPA | concentration-dependent
234 to 236 °C | CN1CCN(S(=O)(=O)c2ccc3c(c2)S(=O)(=O)NC(C2CCCC2)C3)CC1.Cl (racemic) |  | 
